Assay type in all cases: cell-based
The test system of test [1] is Human prostate cancer cells LNCaP. The experiment in a line: Androgen-dependent inhibitory activity on proliferation of prostate cancer cells. The conditions noted are these: 50% proliferation inhibition concentration, DHT 10 nmol/L, 72 hours, read-out: GI50 value. Here is the method:
Human prostate cancer cells LNCaP (Non-Patent Literature 5) having […] androgen receptor gene were seeded in a clear bottom 96 well microplate (BD) at 4.0×10^3/well with phenol red free RPMI1640 containing 5% DCC-FBS (hereinbelow, the medium is referred to as an evaluation medium), and then cultured overnight. The culture was added with the evaluation medium containing DHT (final concentration of DHT: 10 nmol/L) or the evaluation medium containing the compound of Examples or the compound of Comparative Examples (final concentration of the compound of Examples or the compound of Comparative Examples: 10, 30, 100, 300, 1000, 3000, 10000, or 30000 nmol/L), followed by culture for 72 hours. Then, the number of viable cells was counted. The number of viable cells was measured by using Cell Counting Kit-8 (DOJINDO LABORATORIES).

The test system of test [2] is AR positive human prostate cancer cells VCaP. Put plainly: Agonist activity for AR (cell proliferation rate of VCaP cells). Particulars: 72 hours, 2 to 10000 nmol/L, more than 10% at any concentration = agonist activity for AR. On the procedure: AR positive human prostate cancer cells VCaP (In Vivo 15:163-168, 2001) were seeded in a clear bottom 96 well microplate (BD) at 1.5×10^4/well with phenol red free RPMI1640 containing 5% DCC-FBS (hereinbelow, the medium is referred to as an evaluation medium), and then cultured overnight. The culture was added with the evaluation medium containing the compound of Examples or the compound of Comparative Examples (final concentration of the compound of Examples or the compound of Comparative Examples: 2, 5, 14, 41, 123, 370, 1111, 3333, or 10000 nmol/L), followed by culture for 72 hours. Then, the number of viable cells was counted (test group). As a control, the cells were cultured after being added with the evaluation medium only, and the number of viable cells was counted (control group). The number of viable cells was measured by using CellTiter-Glo™ Luminescent Cell Viability Assay (Promega). From the measured number of viable cells, cell proliferation rate with respect to the compound of Examples or the compound of Comparative Examples was calculated based on the number of viable cells measured in the case of using the evaluation medium only. Cell proliferation rate (%) =(Number of viable cells in test group−Number of viable cells in control group)/(Number of viable cells in control group)×100
By considering an error in the number of viable cells measured in the case of using the evaluation medium only, when the cell proliferation rate was more than 10% at any concentration of the 9 concentrations which had been evaluated, it was determined to have an agonist activity for AR.

The next test concerns the target human androgen receptor (Homo sapiens (Human), UniProt P10275). Put plainly: Antagonist activity for AR (pMMTV-luc reporter transcription activity in transfected COS-7 cells, DHT 1 nmol/L). Particulars: 50% transcription activity inhibition concentration; COS-7 cells with pMMTV-luc and pEX-hAR, DHT 1 nmol/L, 24 hours. Here is the method:
Antagonist activity for AR was evaluated according to the following method. COS-7 cells (ATCC) were transfected with pMMTV-luc vector (reporter plasmid having, as an androgen response element, […] long terminal repeat) and pEX-hAR vector (human androgen receptor expression vector: which expresses human AR gene under control of CMV promoter) by using Nucleofector (registered trademark) Kit R (Lonza) as a transfection reagent and Amaxa (Lonza). The COS-7 cells obtained after transfection were seeded in a clear bottom 96 well microplate (BD) at 1.5×10^4/well with phenol red free RPMI1640 containing 10% charcoal-treated fetal bovine serum (hereinbelow, DCC-FBS) (hereinbelow, the medium is referred to as an evaluation medium), and then cultured overnight. […] Then, the transcription activity value was measured. The transcription activity was measured by using Bright-Glo™ Luciferase Assay System (Promega).

In another test the target is androgen receptor (Homo sapiens (Human), UniProt P10275, T878A). The experiment in a line: Activity of reducing expression level of androgen receptor (Western blotting of LNCaP cell lysate). Particulars: 48 hours. Here is the method:
AR positive human prostate cancer cells LNCaP were seeded in a clear bottom 6 well microplate (BD) at 3.5×10^5/well with phenol red free RPMI1640 containing 5% FBS (hereinbelow, the medium is referred to as an evaluation medium), and then cultured overnight. The culture was added with the evaluation medium containing the compound of Examples or the compound of Comparative Examples such that the final concentration of the compound of Examples or the compound of Comparative Examples was 10000 nmol/L, followed by culture for 48 hours. After culture for 48 hours, the medium was removed and the cells were washed with PBS and added with 0.1 mL of Lysis buffer (M-PER added with Protease Inhibitor Cocktail), followed by keeping at 4° C. for 20 minutes. After cell lysis, the cell solution was centrifuged to recover the supernatant as cell lysate. […] The antibody-reacting band (anti AR receptor) was quantified by LAS-3000 (FUJIFILM) using Super Signal West Pico Substrate (Thermo Scientific) as a detection reagent.
For orientation: A western blot detects proteins with antibodies after separation by electrophoresis.

The term GI50 denotes the concentration that inhibits growth by half. A word on the IC50: it is the point on the concentration scale where inhibition reaches its midpoint.

Sequence of human androgen receptor (P10275 whole entry): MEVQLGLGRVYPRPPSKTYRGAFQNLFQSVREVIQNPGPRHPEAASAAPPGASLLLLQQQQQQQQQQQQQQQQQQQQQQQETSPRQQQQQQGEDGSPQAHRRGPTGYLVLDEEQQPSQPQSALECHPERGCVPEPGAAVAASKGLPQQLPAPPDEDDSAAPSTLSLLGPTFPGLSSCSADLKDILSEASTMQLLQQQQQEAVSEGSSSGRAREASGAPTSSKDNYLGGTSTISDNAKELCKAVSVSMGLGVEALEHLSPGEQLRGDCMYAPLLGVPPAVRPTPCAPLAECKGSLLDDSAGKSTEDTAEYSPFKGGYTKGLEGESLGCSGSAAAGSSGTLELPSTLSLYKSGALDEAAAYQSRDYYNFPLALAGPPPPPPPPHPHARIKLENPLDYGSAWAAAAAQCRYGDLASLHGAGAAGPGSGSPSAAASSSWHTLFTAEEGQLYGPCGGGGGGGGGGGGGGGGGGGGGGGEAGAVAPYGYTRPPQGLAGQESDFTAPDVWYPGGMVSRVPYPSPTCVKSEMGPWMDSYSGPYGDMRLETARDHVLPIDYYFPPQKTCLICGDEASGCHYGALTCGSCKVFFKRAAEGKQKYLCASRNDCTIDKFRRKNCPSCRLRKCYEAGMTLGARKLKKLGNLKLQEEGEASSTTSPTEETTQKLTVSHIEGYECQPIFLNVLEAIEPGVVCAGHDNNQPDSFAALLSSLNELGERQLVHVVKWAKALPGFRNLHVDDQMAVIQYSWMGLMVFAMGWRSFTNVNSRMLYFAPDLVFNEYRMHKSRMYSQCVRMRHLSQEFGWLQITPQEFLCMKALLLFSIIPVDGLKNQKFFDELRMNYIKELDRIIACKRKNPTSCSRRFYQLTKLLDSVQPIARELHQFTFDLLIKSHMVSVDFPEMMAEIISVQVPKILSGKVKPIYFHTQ
Sequence of androgen receptor (P10275 whole entry T878A): as the sequence (P10275 whole entry) above, with T878A counted along it

For the molecule `CC(O)(CS(=O)(=O)c1ccc(F)cc1)C(=O)Nc1ccc(C#N)c(C(F)(F)F)c1` (centres unmarked) [Comparative Example 1, N-(4-Cyano-3-(trifluoromethyl)phenyl)-3-((4-fluorophenyl)sulfonyl)-2-hydroxy-2-methylpropanamide, reference compound], in test [1], the 50% growth inhibitory concentration (GI50) was determined as 3500 nM. Also, the “Cell proliferation rate (%)” value in test [2] stood at 39.7%.
Take `Cn1nccc1CCOc1ccc(Nc2ncnc3c2CCN(c2ccc(C#N)c(C(F)(F)F)c2)C3)cc1` [Example 14, 4-(4-((4-(2-(1-Methyl-1H-pyrazol-5-yl)ethoxy)phenyl)amino)-5,6-dihydropyrido[3,4-d]pyrimidin-7(8H)-yl)-2-(trifluoromethyl)benzonitrile]: the concentration for 50% growth inhibition (GI50) in test [1] was 1400 nM. Further, the IC50 on human androgen receptor was found to be 300 nM. In addition, the “10 μM AR expression reducing activity” value at androgen receptor is reported as “reduced (When the AR expression reducing activity is 50% or more, it is described as “reduced”)”.
On to `N#Cc1ccc(N2CCc3c(ncnc3Nc3ccc(S(=O)(=O)NC4CC4)cn3)C2)cc1C(F)(F)F` [Example 19, 6-((7-(4-Cyano-3-(trifluoromethyl)phenyl)-5,6,7,8-tetrahydropyrido[3,4-d]pyrimidin-4-yl)amino)-N-cyclopropylpyridine-3-sulfonamide], for which the concentration for 50% growth inhibition (GI50) in test [1] is 3000 nM. This molecule also came in with an IC50 against human androgen receptor of 130 nM.
As to `N#Cc1ccc(N2CCc3c(ncnc3Nc3ccc(NC(=O)CC(F)(F)F)cn3)C2)cc1C(F)(F)F` [Example 23, N-(6-((7-(4-Cano-3-(trifluoromethyl)phenyl)-5,6,7,8-tetrahydropyrido[3,4-d]pyrimidin-4-yl)amino)pyridin-3-yl)-3,3,3-trifluoropropanamide], in test [1], the concentration for 50% growth inhibition (GI50) was determined as 1500 nM. Also, inhibition against human androgen receptor was half-maximal at 800 nM (IC50). Besides, the “Cell proliferation rate (%)” value in test [2] came to 5.1%.
For the molecule `N#Cc1ccc(N2CCc3c(ncnc3Nc3ccc(C(=O)NCC(F)(F)F)nn3)C2)cc1C(F)(F)F` [Example 24, 6-((7-(4-Cyano-3-(trifluoromethyl)phenyl)-5,6,7,8-tetrahydropyrido[3,4-d]pyrimidin-4-yl)amino)-N-(2,2,2-trifluoroethyl)pyridazine-3-carboxamide], the GI50 in test [1] is 3500 nM. In addition, at human androgen receptor, the half-inhibitory concentration (IC50) is 70 nM. The “10 μM AR expression reducing activity” value at androgen receptor is recorded as “reduced (When the AR expression reducing activity is 50% or more, it is described as “reduced”)”.
On to `N#Cc1ccc(N2CCc3c(ncnc3Nc3ccc(C(=O)NCC(F)F)cn3)C2)cc1C(F)(F)F` [Example 27, 6-((7-(4-Cyano-3-(trifluoromethyl)phenyl)-5,6,7,8-tetrahydropyrido[3,4-d]pyrimidin-4-yl)amino)-N-(2,2-difluoroethyl)nicotinamide], for which, in test [1], the GI50 was determined as 2800 nM. At human androgen receptor, the IC50 is 90 nM. In test [2], the “Cell proliferation rate (%)” value is reported as −0.2%.
Take `N#Cc1ccc(N2CCc3c(ncnc3Nc3ccc(C(=O)NCC(F)F)nn3)C2)cc1C(F)(F)F` [Example 28, 6-((7-(4-Cyano-3-(trifluoromethyl)phenyl)-5,6,7,8-tetrahydropyrido[3,4-d]pyrimidin-4-yl)amino)-N-(2,2-difluoroethyl)pyridazine-3-carboxamide]: the GI50 in test [1] is 3200 nM. The molecule also yielded a half-maximal inhibitory concentration (IC50) on human androgen receptor of 20 nM. Further, the “10 μM AR expression reducing activity” value on androgen receptor is reported as “reduced (When the AR expression reducing activity is 50% or more, it is described as “reduced”)”.
Turning to `N#Cc1ccc(N2CCc3c(ncnc3Nc3ccc(C(=O)N[C@H]4CC[C@H](O)CC4)nn3)C2)cc1Cl` [Example 29, 6-((7-(3-Chloro-4-cyanophenyl)-5,6,7,8-tetrahydropyrido[3,4-d]pyrimidin-4-yl)amino)-N-((1r,4r)-4-hydroxycyclohexyl)pyridazine-3-carboxamide], the concentration for 50% growth inhibition (GI50) in test [1] was 200 nM. The molecule also returned an IC50 at human androgen receptor of 200 nM.
For `N#Cc1ccc(N2CCc3c(ncnc3Nc3ccc(C(=O)NCC4(O)CC4)nn3)C2)cc1C(F)(F)F` [Example 30, 6-((7-(4-Cyano-3-(trifluoromethyl)phenyl)-5,6,7,8-tetrahydropyrido[3,4-d]pyrimidin-4-yl)amino)-N-((1-hydroxycyclopropyl)methyl)pyridazine-3-carboxamide], in test [1], the GI50 was determined as 3200 nM. Moreover, on androgen receptor, the “10 μM AR expression reducing activity” value is “reduced (When the AR expression reducing activity is 50% or more, it is described as “reduced”)”.
In the case of `CC(C)(O)CNC(=O)c1cnc(Nc2ncnc3c2CCN(c2ccc(C#N)c(C(F)(F)F)c2)C3)cn1` [Example 33, 5-((7-(4-Cyano-3-(trifluoromethyl)phenyl)-5,6,7,8-tetrahydropyrido[3,4-d]pyrimidin-4-yl)amino)-N-(2-hydroxy-2-methylpropyl)pyrazine-2-carboxamide], the 50% growth inhibitory concentration (GI50) in test [1] worked out at 2100 nM. The half-maximal inhibitory concentration (IC50) against human androgen receptor was 310 nM. The “Cell proliferation rate (%)” value in test [2] is given as 4.4%.
Turning to `Cn1nccc1CCNC(=O)c1nnc(Nc2ncnc3c2CCN(c2ccc(C#N)c(C(F)(F)F)c2)C3)s1` [Example 35, 5-((7-(4-Cano-3-(trifluoromethyl)phenyl)-5,6,7,8-tetrahydropyrido[3,4-d]pyrimidin-4-yl)amino)-N-(2-(1-methyl-1H-pyrazol-5-yl)ethyl)-1,3,4-thiadiazol-2-carboxamide], in test [1], the GI50 came out at 1600 nM. Moreover, the IC50 at human androgen receptor is 190 nM. The “Cell proliferation rate (%)” value in test [2] is 0.1%.
Take `CC(C)(O)C1CCN(C(=O)c2coc(Nc3ncnc4c3CCN(c3ccc(C#N)c(C(F)(F)F)c3)C4)n2)CC1` [Example 41, 4-(4-((4-(4-(2-Hydroxypropan-2-yl)piperidin-1-carbonyl)oxazol-2-yl)amino)-5,6-dihydropyrido[3,4-d]pyrimidin-7(8H)-yl)-2-(trifluoromethyl)benzonitrile]: the 50% growth inhibitory concentration (GI50) in test [1] turned out to be 2400 nM. On human androgen receptor, this molecule came in with a concentration for half-maximal inhibition (IC50) of 1940 nM. Moreover, the “10 μM AR expression reducing activity” value at androgen receptor is given as “reduced (When the AR expression reducing activity is 50% or more, it is described as “reduced”)”.
On human androgen receptor, `CC(C)(COc1ncc(Nc2ncnc3c2CCN(c2ccc(C#N)c(C(F)(F)F)c2)C3)cc1F)n1ccnn1` [Example 51, 4-(4-((5-Fluoro-6-(2-methyl-2-(1H-1,2,3-triazol-1-yl)propoxy)pyridin-3-yl)amino)-5,6-dihydropyrido[3,4-d]pyrimidin-7(8H)-yl)-2-(trifluoromethyl)benzonitrile] yielded a half-maximal inhibitory concentration (IC50) of 1100 nM. In addition, the “10 μM AR expression reducing activity” value on androgen receptor is on record as “reduced (When the AR expression reducing activity is 50% or more, it is described as “reduced”)”. Also, the “Cell proliferation rate (%)” value in test [2] was −5.4%.
Consider `CC(C)(COc1ncc(Nc2ncnc3c2CCN(c2ccc(C#N)c(C(F)(F)F)c2)C3)cc1Cl)n1cnnn1` [Example 52, 4-(4-((5-Chloro-6-(2-methyl-2-(1H-tetrazol-1-yl)propoxy)pyridin-3-yl)amino)-5,6-dihydropyrido[3,4-d]pyrimidin-7(8H)-yl)-2-(trifluoromethyl)benzonitrile], for which inhibition at human androgen receptor was half-maximal at 150 nM (IC50). For the same molecule, the “10 μM AR expression reducing activity” value on androgen receptor is “reduced (When the AR expression reducing activity is 50% or more, it is described as “reduced”)”. Also, the “Cell proliferation rate (%)” value in test [2] is given as −3.4%.

The values above are taken from patent publication US10300067B2, “Tetrahydropyridopyrimidine compound or salt thereof” (TAIHO PHARMACEUTICAL CO., LTD., priority 2014, dated 2019).
